This note sets out measurements from ChEMBL document CHEMBL3994674, “Toward Resolving the Resveratrol Conundrum: Synthesis and in Vivo Pharmacokinetic Evaluation of BCP-Resveratrol” (ACS Med Chem Lett, 2017).

Converted amounts (≈) assume the structure as drawn. A value given as a limit tells only on which side of the number the result lay.

Series [1] is described as follows: Thermodynamic solubility in pH 7.4 PBS at 10 mg/ml after 1 hr by LC-Ms/MS based shake flask method. The series is classed as physicochemical. The following applies: read-out: Therm_solubility.
Series [2] is described as follows: Half life in human hepatocytes at 5 uM by LC-MS/MS analysis. It is filed as ADME, cell-based, Hepatocyte.
Series [3] is described as follows: Cmax in Sprague-Dawley rat at 20 mg/kg, po administered as single dose via gavage after 5 mins by HPLC-MS analysis. The series is classed as ADME, organism-based. The arrangement: dose 20 mg/kg, route oral. Particulars: in vivo.
Series [4] is described as follows: AUC (0 to last) in Sprague-Dawley rat at 20 mg/kg, po administered as single dose via gavage after 4 hrs by HPLC-MS analysis. It is filed as ADME, organism-based. The arrangement: dose 20 mg/kg, route oral, time 0 - last. The following applies: in vivo.
The nature of series [5]: Plasma concentration in Sprague-Dawley rat at 20 mg/kg, po administered as single dose via gavage up to 4 hrs by HPLC-MS analysis. The series is classed as ADME, organism-based.
Series [6] in a line: Half life in Sprague-Dawley rat at 20 mg/kg, po administered as single dose via gavage by HPLC-MS analysis. It is filed as ADME, organism-based. Particulars: in vivo.
In series [7] the test system is MIA PaCa-2. Put plainly: Cytotoxicity against human MIAPaCa2 cells assessed as growth inhibition at 30 uM after 72 hrs by CellTitre-Glo luminescent assay relative to control. The following applies: MIA PaCa-2, 72 h, read-out: GI. It is filed as functional.
Series [8] deals with SU-DHL10. The series can be described thus: Cytotoxicity against human SU-DHL10 cells assessed as growth inhibition at 30 uM after 72 hrs by CellTitre-Glo luminescent assay relative to control. It is filed as functional. The following applies: SU-DHL10, 72 h, read-out: GI.
The nature of series [9]: Octanol/phosphate buffer partition co-efficient, log D of the compound at 75 uM at pH 7.4 after 2 hrs by LC-Ms/MS based shake-flask method. It is filed as physicochemical.
A short description of series [10]: Tmax in Sprague-Dawley rat at 20 mg/kg, po administered as single dose via gavage by HPLC-MS analysis. The series is classed as ADME, organism-based. The following applies: in vivo.
Series [11] can be described thus: Apparent intrinsic clearance in rat hepatocytes assessed per million cells at 5 uM by LC-MS/MS analysis. It is filed as ADME, cell-based, Hepatocyte.
A short description of series [12]: Apparent intrinsic clearance in human hepatocytes assessed per million cells at 5 uM by LC-MS/MS analysis. It is filed as ADME, cell-based, Hepatocyte.
Series [13] relates to MDA-MB-231. Put plainly: Cytotoxicity against human MDA-MB-231 cells assessed as growth inhibition at 30 uM after 72 hrs by CellTitre-Glo luminescent assay relative to control. The following applies: MDA-MB-231, 72 h, read-out: GI. It is filed as functional.
Series [14] can be described thus: Apparent clearance in Sprague-Dawley rat at 20 mg/kg, po administered as single dose via gavage by HPLC-MS analysis. The series is classed as ADME, organism-based. Particulars: in vivo.
The nature of series [15]: Half life in rat hepatocytes at 5 uM by LC-MS/MS analysis. The series is classed as ADME, cell-based, Hepatocyte.
Series [16] can be described thus: Drug level in human hepatocytes treated with resveratrol at 5 uM by LC-MS/MS analysis. The series is classed as ADME, cell-based, Hepatocyte.
In series [17] the test system is MDA-MB-231. Put plainly: Cytotoxicity against human MDA-MB-231 cells assessed as growth inhibition after 72 hrs by CellTitre-Glo luminescent assay. The series is classed as functional. The following applies: MDA-MB-231, 72 h.
The test system of series [18] is MIA PaCa-2. Put plainly: Cytotoxicity against human MIAPaCa2 cells assessed as growth inhibition after 72 hrs by CellTitre-Glo luminescent assay. It is filed as functional. Particulars: MIA PaCa-2, 72 h.
Series [19] deals with SU-DHL10. The series can be described thus: Cytotoxicity against human SU-DHL10 cells assessed as growth inhibition after 72 hrs by CellTitre-Glo luminescent assay. The following applies: SU-DHL10, 72 h. It is filed as functional.
Series [20] in a line: Drug metabolism in human hepatocytes assessed as resveratrol-glucuronide formation at 5 uM by LC-MS/MS analysis. It is filed as ADME, cell-based, Hepatocyte.
Series [21] in a line: Half life in Wistar rat at 20 mg/kg, po by HPLC-MS analysis. The series is classed as ADME, organism-based. The following applies: in vivo.
Series [22] in a line: Drug metabolism in human hepatocytes assessed as resveratrol-sulfate formation at 5 uM by LC-MS/MS analysis. It is filed as ADME, cell-based, Hepatocyte.
Series [23] in a line: AUC (0 to last) in Wistar rat at 20 mg/kg, po by HPLC-MS analysis. Set-up: dose 20 mg/kg, time 0 - last, route oral. The following applies: in vivo. It is filed as ADME, organism-based.
The nature of series [24]: Cmax in Wistar rat at 20 mg/kg, po by HPLC-MS analysis. It is filed as ADME, organism-based. The arrangement: dose 20 mg/kg, route oral. Particulars: in vivo.
Series [25] can be described thus: Cmax in CD rat at 50 mg/kg/day, po administered via gavage every 24 hrs for 14 consecutive days measured on day 1 post dose by HPLC-MS analysis. The series is classed as ADME, organism-based. The arrangement: dose 50 mg/kg/day, route oral. Particulars: in vivo.
Series [26] is described as follows: Tmax in Wistar rat at 20 mg/kg, po by HPLC-MS analysis. It is filed as ADME, organism-based. The following applies: in vivo.
Series [27] can be described thus: Apparent clearance in Wistar rat at 20 mg/kg, po by HPLC-MS analysis. The series is classed as ADME, organism-based. Particulars: in vivo.
The nature of series [28]: Cmax in CD rat at 50 mg/kg/day, po administered via gavage every 24 hrs for 14 consecutive days measured on day 14 post dose by HPLC-MS analysis. Particulars: in vivo. Set-up: dose 50 mg/kg/day, route oral. The series is classed as ADME, organism-based.

`Oc1cc(O)cc(/C=C/C23CC(O)(C2)C3)c1`: the solubility thermodynamic at 1 h in [1] was found to be 619 µg/mL (≈ 2840 µM). The half-life at 5 µM in [2] is 90.4 min; in [15], 24.2 min. Besides, the peak level in series [3] (Cmax) was 942 ng/mL. In series [4], this molecule returned an exposure AUC(0-t) at 4 h of 587 ng·h/mL. Further, the concentration at 4 h in [5] was 85 ng/mL. The half-life in series [6] is 156 min. The results for the inhibition of growth at 30 µM with MIA PaCa-2 [7], in the series on SU-DHL10 [8] and in the series with MDA-MB-231 [13] were 30%, 41% and 22%, respectively. The same molecule returned a pH-dependent lipophilicity (logD) at 2 h, 75 µM in series [9] of 1.9. Moreover, the time to peak (Tmax) in series [10] was 4.02 min. For the same molecule, the “CLH(app)” value in [11] is 57.4 µL/min; in series [12], 7.7 µL/min. Moreover, the CL/F in series [14] is 363 mL/min/kg.
Take `O=C(O)[C@H]1O[C@@H](Oc2ccc(/C=C/c3cc(O)cc(O)c3)cc2)[C@H](O)[C@@H](O)[C@@H]1O`: in [16], the Drug metabolism result is listed as “Metabolite_Detected”.
On to `COc1ccc(C[C@H](N)C(=O)N[C@H]2[C@@H](O)[C@H](n3cnc4c(N(C)C)ncnc43)O[C@@H]2CO)cc1` [PUROMYCIN], for which the results for the 50% cytotoxic concentration (CC50) with MDA-MB-231 [17], in the series with MIA PaCa-2 [18] and in the series on SU-DHL10 [19] were 480 nM, 200 nM and 110 nM, respectively.
On to `O=S(=O)(O)Oc1ccc(/C=C/c2cc(O)cc(O)c2)cc1`, for which the Drug metabolism result in series [16] was “Metabolite_Detected”.
As for `Oc1ccc(/C=C/c2cc(O)cc(O)c2)cc1` [RESVERATROL], the solubility thermodynamic at 1 h in [1] stood at 19 µg/mL (≈ 83.2 µM). Also, the Drug metabolism entry in series [20] and in [22] was “Metabolite_Detected” throughout. The half-life at 5 µM is 23.2 min in series [2] and below 7.5 min in series [15]. The molecule also showed a half-life in [21] of 11.4 min. In series [23], this molecule displayed an AUC(0-t) of 47.5 ng·h/mL. Also, the figures for the highest concentration (Cmax) in series [24], in series [25] and in [28] were 273 ng/mL, 76.7 ng/mL and 176 ng/mL, respectively. Moreover, the inhibition of growth at 30 µM came to 30% in the series on MIA PaCa-2 [7], 46% in the series on SU-DHL10 [8] and 20% with MDA-MB-231 [13]. This molecule also yielded a logD at 2 h, 75 µM in series [9] of 2.9. In addition, the time of peak concentration (Tmax) in series [26] was 4.98 min. Also, the results for the “CLH(app)” value in series [11] and in series [12] were above 184.8 µL/min and 29.9 µL/min, respectively. Moreover, in series [27], the apparent clearance CL/F was 6820 mL/min/kg.

For orientation: half-life means the time in which the quantity being followed falls by half. Higher therefore signals slow decline. One may read the Cmax as the maximum level reached in the sampled fluid or tissue. As a reminder, the AUC(0-t) is the area under the concentration-time curve up to a stated or last time point. Low values mean low exposure, high ones high exposure. What is called logD is lipophilicity at a set pH, counting ionised and neutral species. A high value points to higher lipophilicity. Broadly, the Tmax is the time at which the peak concentration occurs. As a reminder, the CL/F is clearance divided by bioavailability, as obtained after extravascular dosing. The CC50 is the concentration giving 50% cytotoxicity.
